Source: US20120077836A1, “METHODS OF ADMINISTERING (4AR,10AR)-1-N-PROPYL-1,2,3,4,4A,5,10,10A-OCTAHYDROBENZO [G] QUINOLINE-6,7-DIOL AND RELATED COMPOUNDS ACROSS THE ORAL MUCOSA, THE NASAL MUCOSA OR THE SKIN AND PHARMACEUTICAL COMPOSITIONS THEREOF” (priority 2009, published 2012)

Columns and labels:
reserpinesed rats = assay: Reversal of reserpine-induced hypomotility in rats; type: in vivo, rat
Description: Rats weighing ca. 200 g were treated with reserpine (5 mg/kg subcutaneously as a solution in 20% aqueous solutol for which pH was adjusted to 4 with methanesulfonic acid). […] Group 1: treated with 20% ethanol in 0.7% aqueous sodium chloride subcutaneously.

MPTP/AMPT mouse model = assay: Superiority model, hypomotility in the MPTP/AMPT mouse model; type: in vivo
Description: MPTP (1-methyl-4-phenyl-1,2,3,6-tetrahydropyridine) is a neurotoxin that causes permanent symptoms of Parkinson's disease by killing certain neurons in the substantia nigra of the brain. It is used to study the disease in monkeys and mice. […] Various compounds (all dosed subcutaneously) were tested for their ability to reverse the motility deficits produced in this model.

[1] = test system: rats with unilateral 6-OHDA lesions; conditions: rat, in vivo, sc
[2] = target: T1, human recombinant D1 receptor (Homo sapiens, UniProt P21728); assay: D1 cAMP assay; type: cell-based; conditions: read-out: intrinsic activity (efficacy)
T1 construct: expressed in transfected cells
Description: The ability of the compounds to either stimulate or inhibit the D1 receptor mediated cAMP formation in CHO cells stably expressing the human recombinant D1 receptor was measured as follows. Cells were seeded in 96-well plates at a concentration of 11000 cells/well 3 days prior to the experiment.

[3] = test system: rats with unilateral 6-OHDA lesions; assay: D1/D2 dissection, rotation response in rats with unilateral 6-OHDA lesions; type: in vivo, rat; conditions: 6-OHDA rats; for MED (minimum effective dose to induce rotation) / MEDNemonapride (MED to overcome Nemonapride block): dosed SC; for MEDNemonapride (MED to overcome Nemonapride block): * = rotations could not be blocked by SCH23390
Text: Rats weighing 200-250 g were subjected to unilateral 6-OHDA lesions. […] Nemonapride is a D2 antagonist that blocks the D2 receptors, therefore any observed rotations would be dependent upon activity at the D1 receptors.

human D2 receptor = target: T2, human D2 receptor (Homo sapiens, UniProt P14416); assay: D2 cAMP assay; type: cell-based; conditions: read-out: intrinsic activity (efficacy)
T2 construct: expressed in transfected cells; host or cells: CHO cells
Description: The ability of the compounds to either stimulate or inhibit the D2 receptor mediated inhibition of cAMP formation in CHO cells transfected with the human D2 receptor was measured as follows. Cells were seeded in 96 well plates at a concentration of 8000 cells/well 3 days prior to the experiment. On the day of the experiment the cells were washed once in preheated G buffer (1 mM MgCl2, 0.9 mM CaCl2, 1 mM IBMX in PBS) and the assay was initiated by addition of 100 micro-1 of a mixture of 1 micro-M quinpirole, 10 microM forskolin and test compound in G buffer (antagonism) or 10 micro-M forskolin and test compound in G buffer (agonism).

[4] = test system: rats with unilateral 6-OHDA lesions; assay: Rotation response in 6-OHDA rats after buccal delivery; type: in vivo, rat
6-OHDA rats = assay: Reversal of L-DOPA-induced dyskinesias in 6-OHDA rats (AIMS); type: in vivo, rat; conditions: after 7 days L-DOPA/Benserazide priming; once daily days 1-10: L-DOPA/Benserazide 6/15 mg/kg SC; compound 10 0.0013 mg/kg SC; pramipexole […] SC
Text: Animals were observed on Days 1, 3 and 5 and AIMS were scored. The day 5 scores were then used to separate the animals into three groups of 6 animals each. Group 1 continued with daily L-DOPA treatment. […] Treatment continued daily for 10 days and the amount of dyskinesia was scored on days 1, 5, 9 and 10.

MPTP treated marmosets = assay: Anti-parkinsonian effects in MPTP-treated common marmosets; type: in vivo, common marmoset; design: disability score (120 min) / disability score (180 min) / disability score (240 min) / disability score (300 min) / disability score (360 min) / disability score (420 min) / disability score (60 min): scale not given here
Description: The experiments were conducted using 6 MPTP treated marmosets (2.0 mg/kg daily for up to 5 consecutive days dissolved in sterile 0.9% saline solution). All the animals had previously been treated with L-DOPA (12.5 mg/kg p.o., plus carbidopa 12.5 mg/kg p.o.) administered daily for up to 30 days in order to induce dyskinesia. […] Domperidone was administered 60 min before any of the test compounds. Domperidone is an antidopaminergic drug that suppresses nausea and vomiting. Locomotor activity was assessed using test cages that are comprised of 8 photo-electric switches comprised of 8 infra-red beams which are strategically placed in the cage and interruption of a beam is recorded as one count. […] The assessment of motor disability was performed by a trained observer blinded to the treatment.
The dose chosen for this challenge is at the top of the dose response curve for this drug.

[5] = Table 4e direct comparison, AMPT 250 mg/kg SC, apomorphine 1 mg/kg SC, pramipexole 1 mg/kg SC, compound 10 0.030 mg/kg SC, controls: vehicle 509, AMPT/vehicle 2

T1 sequence (P21728 whole entry): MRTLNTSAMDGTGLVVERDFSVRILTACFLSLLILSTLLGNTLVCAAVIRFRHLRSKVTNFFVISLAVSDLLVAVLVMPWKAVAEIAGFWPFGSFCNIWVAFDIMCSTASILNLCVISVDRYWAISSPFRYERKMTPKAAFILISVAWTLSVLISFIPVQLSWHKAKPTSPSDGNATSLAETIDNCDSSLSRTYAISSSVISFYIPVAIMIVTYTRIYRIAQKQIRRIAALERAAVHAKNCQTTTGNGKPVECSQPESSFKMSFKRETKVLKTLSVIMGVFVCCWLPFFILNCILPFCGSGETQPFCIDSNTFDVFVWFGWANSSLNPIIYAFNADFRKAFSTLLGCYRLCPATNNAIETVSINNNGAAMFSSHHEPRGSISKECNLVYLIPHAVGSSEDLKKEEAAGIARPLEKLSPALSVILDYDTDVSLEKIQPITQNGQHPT
T2 sequence (P14416 whole entry): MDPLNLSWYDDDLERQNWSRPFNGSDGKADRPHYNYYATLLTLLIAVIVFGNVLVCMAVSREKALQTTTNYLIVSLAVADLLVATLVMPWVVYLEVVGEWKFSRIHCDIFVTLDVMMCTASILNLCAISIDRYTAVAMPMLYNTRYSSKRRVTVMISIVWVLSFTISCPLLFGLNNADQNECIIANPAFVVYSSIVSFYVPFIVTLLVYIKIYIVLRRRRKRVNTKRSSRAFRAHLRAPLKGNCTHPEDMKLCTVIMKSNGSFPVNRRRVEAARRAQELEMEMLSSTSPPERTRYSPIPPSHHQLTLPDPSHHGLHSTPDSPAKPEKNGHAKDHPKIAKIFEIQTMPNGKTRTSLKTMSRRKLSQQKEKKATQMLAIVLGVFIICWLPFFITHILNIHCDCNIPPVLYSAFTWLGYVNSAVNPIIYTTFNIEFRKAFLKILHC

CN1CCc2cccc3c2[C@H]1Cc1ccc(O)c(O)c1-3 [apomorphine, reference compound]
reversal of reserpine-induced hypomotility (reserpinesed rats; administered subcutaneously): reversed the reserpine-induced hypomotility | activity count (reserpinesed rats; reserpine 5 mg/kg SC 23-24 h before, apomorphine 1 mg/kg SC, compound 10 0.01 mg/kg SC, over 3 hours, controls: vehicle 486, reserpine/vehicle 17): 440 | reversal of motility deficits (MPTP/AMPT mouse model; MPTP/AMPT mice, all dosed subcutaneously): restored locomotion in the mice in a dose-dependent manner | activity count (0.5-1.5 h) (MPTP/AMPT mouse model; Table 4b, AMPT 250 mg/kg SC at -1.5 h, 1.0 mg/kg SC, controls: vehicle 694, AMPT/vehicle 1): 912 | activity count (0.5-1.5 h) (MPTP/AMPT mouse model; [5]): 904 | dyskinesia score (AIMS) [1]: about 65 | Emax [2]: 86% | MED (minimum effective dose to induce rotation) [3]: 0.010 mg/kg | MEDNemonapride (MED to overcome Nemonapride block) [3]: 0.030 mg/kg | Emax (human D2 receptor): 100% | mean number of rotations over 3 h ([4]; apomorphine 0.1 mg/kg SC, compound 10 0.01 mg/kg buccally): 1123 | induction of rotation ([4]; apomorphine subcutaneous, compound 10 buccal): induced rotations

CCCN[C@H]1CCc2nc(N)sc2C1 [pramipexole]
activity count (0.5-1.5 h) (MPTP/AMPT mouse model; [5]): 176 | MED (minimum effective dose to induce rotation) [3]: 0.1 mg/kg | MEDNemonapride (MED to overcome Nemonapride block) [3]: 1.0 mg/kg | mean AIM score (days 1, 5, 9, 10) (6-OHDA rats): 58

CCCN(CCc1cccs1)[C@H]1CCc2c(O)cccc2C1 [rotigotine]
D1 component in rotation model ([3]; SC): could not be observed | MED (minimum effective dose to induce rotation) [3]: 0.030 mg/kg | MEDNemonapride (MED to overcome Nemonapride block) [3]: 0.30 mg/kg

N[C@@H](Cc1ccc(O)c(O)c1)C(=O)O [L-DOPA, reference compound]
dyskinesia score (AIMS) [1]: about 65 | disability score (60 min) (MPTP treated marmosets; 12.5 mg/kg PO): 10.0 | disability score (120 min) (MPTP treated marmosets; 12.5 mg/kg PO): 2.0 | disability score (180 min) (MPTP treated marmosets; 12.5 mg/kg PO): 1.8 | disability score (240 min) (MPTP treated marmosets; 12.5 mg/kg PO): 3.2 | disability score (300 min) (MPTP treated marmosets; 12.5 mg/kg PO): 5.0 | disability score (360 min) (MPTP treated marmosets; 12.5 mg/kg PO): 9.7 | disability score (420 min) (MPTP treated marmosets; 12.5 mg/kg PO): 11.0 | effect on locomotor activity and motor disability (MPTP treated marmosets; L-DOPA 12.5 mg/kg p.o., compound 10 0.001 or 0.01 mg/kg SC): increased locomotor activity and reversed motor disability

CC(C)C[C@H]1C(=O)N2CCC[C@H]2[C@]2(O)O[C@](NC(=O)[C@@H]3C=C4c5cccc6[nH]c(Br)c(c56)C[C@H]4N(C)C3)(C(C)C)C(=O)N12 [bromocriptine]
activity count (0.5-1.5 h) (MPTP/AMPT mouse model; Table 4d, AMPT 250 mg/kg SC, 1 mg/kg SC, controls: vehicle 336, AMPT/vehicle 16): 25 | activity count (0.5-1.5 h) (MPTP/AMPT mouse model; Table 4d, AMPT 250 mg/kg SC, 5 mg/kg SC): 17 | activity count (0.5-1.5 h) (MPTP/AMPT mouse model; Table 4d, AMPT 250 mg/kg SC, 10 mg/kg SC): 36
